Results taken from ChEMBL document CHEMBL5370652, “Ligand Sulfur Oxidation State Progressively Alters Galectin-3-Ligand Complex Conformations To Induce Affinity-Influencing Hydrogen Bonds” (J Med Chem, 2023).

Assays:
[1] = biological target: T1, Galectin-3 (Homo sapiens, UniProt P17931); experiment: Binding affinity to wild type Galectin-3 (unknown origin) assessed as dissociation constant by fluorescence polarization assay
[2] = biological target: T1, Galectin-3
Description: Binding affinity to Galectin-3 (unknown origin) assessed as change in enthalpy by isothermal titration calorimetry analysis

[3] = biological target: T1, Galectin-3; remark: listed apart in the source
Description: Binding affinity to Galectin-3 (unknown origin) assessed as gibbs free energy change by isothermal titration calorimetry analysis

[4] = biological target: T1, Galectin-3; remark: listed apart in the source
Description: Binding affinity to Galectin-3 (unknown origin) assessed as change in entropy by isothermal titration calorimetry analysis

[5] = biological target: T1, Galectin-3; experiment: Binding affinity to Galectin-3 (unknown origin) assessed as dissociation constant by fluorescence polarization assay

T1 sequence (P17931 whole entry): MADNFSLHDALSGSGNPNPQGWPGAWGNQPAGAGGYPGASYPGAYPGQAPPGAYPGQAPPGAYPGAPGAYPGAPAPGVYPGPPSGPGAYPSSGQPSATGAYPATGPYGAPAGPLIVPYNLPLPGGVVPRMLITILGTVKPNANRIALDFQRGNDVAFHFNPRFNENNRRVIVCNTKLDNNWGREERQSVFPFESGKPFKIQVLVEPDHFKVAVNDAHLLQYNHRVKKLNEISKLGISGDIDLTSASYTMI

Cc1ccc(S[C@@H]2O[C@H](CO)[C@H](O)[C@H](n3cc(S(=O)(=O)c4ccccc4)nn3)[C@H]2O)cc1
Kd [1]: 79 µM

[O-][S+](c1ccccc1)c1cn([C@H]2[C@@H](O)[C@@H](CO)O[C@@H](S[C@@H]3O[C@H](CO)[C@@H](O)[C@H](O)[C@H]3O)[C@@H]2O)nn1 (stereo not given in full)
deltaH [2]: -6.17 kcal/mol
deltaG [3]: -5.55 kcal/mol
-TdeltaS [4]: 0.62 kcal/mol
Kd [5]: 55.5 µM
